Consider ten compounds from publication PMC10793205, “Differential transmetallation of complexes of the anti-cancer thiosemicarbazone, Dp4e4mT: effects on anti-proliferative efficacy, redox activity, oxy-myoglobin and oxy-hemoglobin oxidation” (Chemical Science, 2023).

In one data set the test system is MRC-5 fibroblasts. Put plainly: MTT cellular proliferation assay, mortal MRC-5 fibroblasts. The format is cell-based. Conditions: 37 °C, mean ± SD (3 experiments). As to the method:
To examine the selectivity of the Dp4e4mT complexes against neoplastic versus normal mortal cells, their anti-proliferative efficacy was compared to mortal MRC-5 fibroblasts after a 72 h/37 °C incubation (Table 3). […] To further examine selectivity, an in vitro therapeutic index was calculated as per our previous investigations.[28,57,59,66,67] This parameter is derived from the ratio of the IC50 of MRC-5 cells/IC50 of SK-N-MC or AsPC-1 cells; with high ratios indicating greater selective anti-proliferative activity against neoplastic cells (Table 3). The mean therapeutic index is the average of the therapeutic indices calculated for both tumor cell-types. […] The mean therapeutic index of Dp4e4mT exceeded that obtained for clinically trialed DpC (157), as well as that of Dp44mT (112) and DFO (6). […]
(§1) All cell lines were procured from the American Type Culture Collection (ATCC; Manassas, VA). The SK-N-MC neuroepithelioma cell line and the mortal MRC-5 fibroblasts were cultured in minimum essential medium (Sigma-Aldrich), while the AsPC-1 cell line was cultured in Roswell Park Memorial Institute 1640 medium (Thermo Fisher Scientific, MA, USA). Both media were supplemented with 10% fetal calf serum, non-essential amino acids (1 mM), sodium pyruvate (1 mM), L-glutamine (2 mM), penicillin (100 U/mL), streptomycin (100 U/mL), and Fungizone (0.5 µg/mL). Cells were maintained at 37 °C in an incubator under a humidified atmosphere with 5% CO 2, following established protocols. 11 Cellular Proliferation Assay
(§2) Cellular proliferation was evaluated through the established 3-(4,5-dimethylthiazol-2-yl)-2,5-diphenyltetrazolium bromide (MTT) proliferation assay, validated by viable cell counts.12 […]
(§3) Ligands and complexes were dissolved in DMSO to make a stock solution of 10 mM, subsequently diluted in culture media. For cell culture experiments, the DMSO's maximum concentration remained below 0.5% (v/v), with no discernible impact on proliferation.12 MTT […]
(§4) Trypan blue staining.12 Analysis of the data was executed employing MARS Data Analysis Software (BMG LabTech; version 3.30). The concentration of agents necessary to inhibit cellular proliferation by 50% (IC 50) was then calculated. […]

Another data set has as its system AsPC-1 cells. Put plainly: MTT cellular proliferation assay, AsPC-1 pancreatic adenocarcinoma cells. The format is cell-based, human. To be noted: for IC50: 37 °C, MTT, mean ± SD (3 experiments); for Therapeutic index AsPC-1: IC50 of MRC-5 cells/IC50 of AsPC-1 cells, 72 h/37 °C. As for the experimental part:
The anti-proliferative activity of Dp4e4mT relative to its complexes with Fe(III), Co(III), Ni(II), Cu(II), Zn(II), Ga(III), and Pd(II) was examined over incubation periods of 24-, 48-, and 72 h/37 °C (Table 2). These studies were performed using human SK-N-MC neuroepithelioma and AsPC-1 pancreatic adenocarcinoma cells that we have previously examined to assay other ligands.[15,28,43] […]
as §1, §2, §3, §4
In general terms: Formazan colour is commonly taken as a measure of viable cells.

In a further data set the target is oxy-Hb (Homo sapiens, UniProt P68871+P69905). Put plainly: Oxidation of purified oxy-Hb to met-Hb (UV-vis). The format is biochemical. Conditions: 10 μM agent, oxy-Hb 40 μM, 1–3 h/20 °C. An excerpt:
As such, it was important to examine the effect of the Dp4e4mT complexes on oxy-Hb and oxy-Mb oxidation (Fig. 6 and 7). Comparisons were made to three controls, namely DFO, Dp44mT, and DpC, as well as their Fe(III) complexes. […] In contrast, the Fe(III) complexes of Dp44mT and DpC were positive controls, as they induce oxidation of oxy-Mb.[28,39,42]
Fig. 7 (A and B) Investigation of the effects of Dp4e4mT and its Fe(III), Co(III), Ni(II), Cu(II), Zn(II), Ga(III), and Pd(II) complexes versus DFO, Dp44mT, DpC and their Fe(III) complexes (10 μM) on met-Hb generation (% zero time) after an incubation of 1–3 h/20 °C with purified oxy-Hb (40 μM). (C) Investigation of the effects of Dp4e4mT and its Fe(III), Co(III), Ni(II), Cu(II), Zn(II), Ga(III), or Pd(II) complexes relative to the positive controls DFO, Dp44mT, DpC, and their Fe(III) complexes (10 μM) on oxy-Hb oxidation in intact human erythrocytes after a 3 h/37 °C incubation. Results are mean ± SD (3 experiments).
Spectroscopic Examination of Met-Mb and Met-Hb Formation from Oxy-Mb and Oxy- […]
Oxy-Mb and oxy-Hb solutions were prepared following established protocols.8, 17 In brief, solutions of reduced Mb and Hb in PBS (pH 7.2) were prepared by adding 1.2 mL of Na2S2O4 (12 mM) to 38 mL of met-Mb and met-Hb solution (40 μM). 17 Subsequently, oxy-Mb and oxy-Hb were generated by gently passing 150 mL of oxygen (from an air-filled syringe) through the solution containing reduced Mb and Hb, effectively eliminating any residual Na2S2O4. Following this, the oxy-Mb and oxy-Hb solutions were passed through a PD-10 column prepacked with 8.3 mL of Sephadex G-25 and equilibrated with PBS (pH 7.2). 17 In experiments examining the activity of the agents, all complexes were dissolved in 1,2-propanediol, then diluted to 10 µM in PBS (pH 7.2). The experiments were conducted over incubations of 0 to 3 h with the agents. UV-Vis spectra covering the range of 300 to 700 nm were recorded at a temperature of 20°C using a Shimadzu UV−Vis spectrophotometer (UV-1800; Shimadzu, Kyoto, Japan). Concentrations of met-Mb and met-Hb, as well as reduced-Mb and reduced-Hb, were determined at 409 nm and 435 nm, respectively. Concentrations of oxy-Mb and oxy-Hb were determined at 544 nm and 582 nm, respectively. 17

The mark [1] stands for this setting: Homo sapiens, MRC5, MRC-5, 72 h.
Where [2] appears, read: Homo sapiens, ASPC1, AsPC-1, 24 h.
The mark [3] stands for this setting: Homo sapiens, ASPC1, AsPC-1, 48 h.
Where [4] appears, read: Homo sapiens, ASPC1, AsPC-1, 72 h.

Sequence of oxy-Hb (P69905 2-142 limits assumed): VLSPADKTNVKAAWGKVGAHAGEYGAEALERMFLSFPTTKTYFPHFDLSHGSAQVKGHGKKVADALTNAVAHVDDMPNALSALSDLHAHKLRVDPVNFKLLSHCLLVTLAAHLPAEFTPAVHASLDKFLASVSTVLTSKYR
Sequence of oxy-Hb (P68871 2-147 limits assumed): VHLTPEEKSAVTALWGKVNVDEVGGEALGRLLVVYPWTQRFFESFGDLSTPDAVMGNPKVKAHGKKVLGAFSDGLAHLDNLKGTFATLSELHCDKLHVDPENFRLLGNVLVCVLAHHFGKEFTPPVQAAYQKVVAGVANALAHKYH

Broadly, the IC50 is the point on the concentration scale where inhibition reaches its midpoint. High values mean a need for much substance, low ones inhibition by little substance. Take `CN(C)C(=S)NN=C(c1ccccn1)c1ccccn1` [Dp44mT, di-2-pyridylketone 4,4-dimethyl-3-thiosemicarbazone, reference compound]: the IC50 worked out at 1073 ± 7 nM in the data set with MRC-5 fibroblasts (setting [1]), 4640 ± 71 nM in the data set with AsPC-1 cells (setting [2]), 42 ± 6 nM with AsPC-1 cells (setting [3]) and 15 ± 3 nM in the data set with AsPC-1 cells (setting [4]). The “Therapeutic index AsPC-1” value with AsPC-1 cells is reported as 71.

For `CCN(C)C([S-])=NN=C(c1ccccn1)c1ccccn1.CCN(C)C([S-])=NN=C(c1ccccn1)c1ccccn1.[Ni+2]` [[Ni(Dp4e4mT)2]], the IC50 is over 5000 nM in the data set on MRC-5 fibroblasts (MRC-5, 72 h); over 25000 nM in the data set on AsPC-1 cells (AsPC-1, 24 h); 234 ± 83 nM in the data set on AsPC-1 cells (AsPC-1, 48 h); 76 ± 54 nM in the data set with AsPC-1 cells (AsPC-1, 72 h). The “oxy-Hb oxidation, purified oxy-Hb (in words)” value (“oxy-Hb oxidation” below) is listed as “minimal impact” on oxy-Hb and “low levels of oxy-Hb oxidation” on oxy-Hb (listed as Dp4e4mT Ni(II) complex). In addition, the “Therapeutic index AsPC-1” value in the data set on AsPC-1 cells is 62.

Turning to `CCN(C)C([S-])=NN=C(c1ccccn1)c1ccccn1.CCN(C)C([S-])=NN=C(c1ccccn1)c1ccccn1.[Ga+3]` [[Ga(Dp4e4mT)2]^+], the IC50 is 774 ± 14 nM in the data set on MRC-5 fibroblasts (MRC-5, 72 h); 2431 ± 15 nM in the data set with AsPC-1 cells (AsPC-1, 24 h); 1730 to 2430 nM with AsPC-1 cells (AsPC-1, 24 h, listed as Dp4e4mT Ga(III) complex); 47 ± 6 nM in the data set with AsPC-1 cells (AsPC-1, 48 h); 5 ± 1 nM in the data set with AsPC-1 cells (AsPC-1, 72 h). The “oxy-Hb oxidation” value at oxy-Hb is “significantly increased oxy-Mb and oxy-Hb oxidation”. For the same compound, the “Therapeutic index AsPC-1” value in the data set with AsPC-1 cells was determined as 154.

As to `CCN(C)C([S-])=NN=C(c1ccccn1)c1ccccn1.CCN(C)C([S-])=NN=C(c1ccccn1)c1ccccn1.[Fe+3]` [[Fe(Dp4e4mT)2]^+], the IC50 with MRC-5 fibroblasts (MRC-5, 72 h) stood at 1980 ± 6 nM; in the data set with AsPC-1 cells (AsPC-1, 24 h) it was 22380 ± 58 nM; in the data set on AsPC-1 cells (AsPC-1, 48 h), 1580 ± 77 nM; in the data set with AsPC-1 cells (AsPC-1, 72 h), 201 ± 31 nM. Also, in the data set with AsPC-1 cells, the “Therapeutic index AsPC-1” value is 9.

With `CN(C(=S)NN=C(c1ccccn1)c1ccccn1)C1CCCCC1` [DpC, di-2-pyridylketone 4-cyclohexyl-4-methyl-3-thiosemicarbazone, reference compound], the IC50 in the data set with MRC-5 fibroblasts (setting [1]) is 2987 ± 8 nM; with AsPC-1 cells (setting [2]) it was 4921 ± 34 nM; in the data set with AsPC-1 cells (setting [3]), 87 ± 34 nM; in the data set with AsPC-1 cells (setting [4]) it was 18 ± 7 nM. For the same compound, the “Therapeutic index AsPC-1” value with AsPC-1 cells was 165.

`CCN(C)C(=S)NN=C(c1ccccn1)c1ccccn1` [Dp4e4mT, di-2-pyridylketone-4-ethyl-4-methyl-3-thiosemicarbazone]: the IC50 in the data set with MRC-5 fibroblasts (setting [1]) worked out at 1810 ± 518 nM; in the data set on AsPC-1 cells (setting [2]), 3780 ± 91 nM; in the data set on AsPC-1 cells (setting [3]), 45 ± 8 nM; in the data set on AsPC-1 cells (setting [4]) it was 9 ± 2 nM. In addition, the “Therapeutic index AsPC-1” value with AsPC-1 cells is 120.

As to `CCN(C)C([S-])=NN=C(c1ccccn1)c1ccccn1.CCN(C)C([S-])=NN=C(c1ccccn1)c1ccccn1.[Zn+2]` [[Zn(Dp4e4mT)2]], the “oxy-Hb oxidation” value on oxy-Hb is “significantly increased oxy-Mb and oxy-Hb oxidation”. Also, the “Therapeutic index AsPC-1” value in the data set with AsPC-1 cells worked out at 125.

For the compound `CCN(C)C([S-])=NN=C(c1ccccn1)c1ccccn1.CCN(C)C([S-])=NN=C(c1ccccn1)c1ccccn1.[Co+3]` [[Co(Dp4e4mT)2]^+], the IC50 with MRC-5 fibroblasts (MRC-5, 72 h) was 3901 ± 7 nM; in the data set with AsPC-1 cells (AsPC-1, 24 h), 9522 ± 91 nM; with AsPC-1 cells (AsPC-1, 48 h) it was 2680 ± 78 nM; in the data set with AsPC-1 cells (AsPC-1, 72 h), 1570 ± 257 nM. The entries for the “oxy-Hb oxidation” value at oxy-Hb and on oxy-Hb (listed as Dp4e4mT Co(III) complex) were “minimal impact” and “low levels of oxy-Hb oxidation”, respectively. Further, the “Therapeutic index AsPC-1” value with AsPC-1 cells was 2.

In the case of `CCN(C)C([S-])=NN=C(c1ccccn1)c1ccccn1.[Cl-].[Cu+2]` [[Cu(Dp4e4mT)Cl]], the IC50 stood at 391 ± 72 nM in the data set on MRC-5 fibroblasts (MRC-5, 72 h); 1074 ± 6 nM in the data set on AsPC-1 cells (AsPC-1, 24 h); 42 ± 6 nM with AsPC-1 cells (AsPC-1, 48 h); 3 ± 1 nM in the data set with AsPC-1 cells (AsPC-1, 72 h). Moreover, at oxy-Hb, the “oxy-Hb oxidation” value was “lowest ability to oxidize oxy-Mb and oxy-Hb”. For the same compound, the “Therapeutic index AsPC-1” value in the data set with AsPC-1 cells is 130.

Consider `CCN(C)C([S-])=NN=C(c1ccccn1)c1ccccn1.[Cl-].[Pd+2]` [[Pd(Dp4e4mT)Cl]], for which the IC50 is 1040 ± 11 nM in the data set with MRC-5 fibroblasts (MRC-5, 72 h); over 25000 nM in the data set with AsPC-1 cells (AsPC-1, 24 h); 1340 ± 74 nM in the data set on AsPC-1 cells (AsPC-1, 48 h); 262 ± 78 nM in the data set on AsPC-1 cells (AsPC-1, 72 h). Moreover, the “oxy-Hb oxidation” value is “minimal impact” at oxy-Hb and “low levels of oxy-Hb oxidation” on oxy-Hb (listed as Dp4e4mT Pd(II) complex). In the data set on AsPC-1 cells, the “Therapeutic index AsPC-1” value was found to be 3.
